Measured values: patent US20120035244A1, “PARP1 TARGETED THERAPY” (THE REGENTS OF THE UNIVERSITY OF MICHIGAN, priority 2010, published 2012)
Entries after “also recorded” stand apart in the source; their conditions may differ.

How the values were obtained:
[1] = system: RWPE cells transduced with ERG adenovirus; assay: Basement membrane matrix invasion assay, RWPE cells transduced with ERG adenovirus; type: cell-based, human; details: P<0.01 for DNA-PKcs siRNA or NU7026>10 μM, P<0.05 for all PARP1 siRNA, NU1025 or Olaparib treatments
Method: (§1) For invasion assays, the prostate cell lines RWPE-1 and VCaP were transfected with siRNA or negative controls as indicated. NU7026 (Sigma) and NU1025 (Calbiochem) were dissolved in DMSO and stored at −20° C. in the dark. Forty-eight hours post-transfection/transduction, cells were seeded onto the basement membrane matrix (EC matrix, Chemicon, Temecula, Calif.) in the chamber insert with […] pores of a 24-well culture plate in serum free media. Cells were attracted to the lower chamber by the addition of complete media as a chemoattractant. After 48 hours incubation at 37° C. with 5% CO2, the non-invading cells and EC matrix were gently removed with a cotton swab. Invasive cells, which were located on the lower side of the membrane, were stained with crystal violet, air dried and photographed. To quantify the relative number of invaded cells, colorimetric assays were performed by treating the inserts with 150 μl of 10% acetic acid (v/v) and measuring absorbance of each condition at 560 nm using a spectrophotometer (GE Healthcare).

VCaP cells = assay: Basement membrane matrix invasion assay, VCaP cells; type: cell-based, human; details: P<0.01 for DNA-PKcs siRNA or NU7026>10 μM; P<0.05 for all PARP1 siRNA, NU1025 or Olaparib treatments
Method: as §1

[2] = system: RWPE cells stably overexpressing ETV1; assay: Basement membrane matrix invasion assay, RWPE-ETV1 cells; type: cell-based, human; details: P<0.01 for all PARP1 or DNA-PKcs treatments
Method: as §1

PC3 = assay: Basement membrane matrix invasion assay, PC3 cells; type: cell-based, human
[3] = system: RWPE cells overexpressing SLC45A3-BRAF; assay: Basement membrane matrix invasion assay, RWPE-SLC45A3-BRAF cells; type: cell-based, human
Method: as §1

panel of cell lines = assay: WST chemosensitivity assay (72 hours); type: cell-based; details: after 72 hours, any of the cell lines tested
LNCaP [4] = assay: CAM liver metastasis assay, LNCaP; type: in vivo, chicken embryo; details: LNCaP (ETS positive), eggs treated every other day with Olaparib, P=0.1
Method: (§2) The CAM assay was performed as described previously (Zijlstra, A., et al., Cancer research 62, 7083-7092 (2002)). Briefly, fertilized eggs were incubated in a rotary humidified incubator at 38° C. with for 10 days. After releasing the CAM by applying mild amount of low pressure to the hole over the air sac and cutting a square 1-cm^2 window encompassing a second hole near the allantoic vein, cultured human cells that had been pre-treated with siRNA as indicated were detached by trypsinization and re-suspended in complete medium prior to implantation of 2×10^6 cells adjacent to the mesenchyme in each egg. The windows were subsequently, sealed and the eggs were returned to a stationary incubator. Cells were then treated as indicated with 40 mg/kg body weight Olaparib which was administered on day 13, 15 and 17. Day 18 embryos were sacrificed. Tumors were then excised and weighed. […] After incubation of either the metastasis or intravasation assays, the extra-embryonic tumor and CAM, as well as the embryonic liver were harvested and analyzed for the presence of tumor cells by quantitative human alu-specific PCR. […] Quantification of human cells in the extracted DNA was done as described^14. Fluorogenic TaqMan qPCR probes were applied as above, and DNA copy numbers were quantified.

LNCaP [5] = assay: CAM xenograft tumor weight, LNCaP; type: in vivo, chicken embryo; details: extended Olaparib treatment, P<0.01
Method: as §2

PC3-LACZ xenografts = assay: PC3-LACZ mouse xenograft model; type: in vivo, mice; details: PC3-LACZ (ETS negative)
Description: (§3) Olaparib was obtained from Axon Medchem (Groningen, The Netherlands).

[6] = system: MDA-PCa-118b (ETS negative); assay: Human prostate cancer tissue xenograft (primagraft) MDA-PCa-118b; type: in vivo, mice; details: 40 mg/kg Olaparib
Method: (§4) Human prostate cancer specimens MDA-PCa 2b-T (ETV1 positive), MDA-PCa-133 (ERG positive) and MDA PCa 118b (ETS-negative) were obtained (Li, Z. G., et al. The Journal of clinical investigation 118, 2697-2710 (2008)). Each xenografted tumor tissue was aseptically harvested from the host mice. New recipient mice were anesthetized by injecting […] intraperitoneally for chemical restraint before tumor implantation. About 0.5 cm^3 size of the excised tumor tissue was directly implanted into subcutaneous pockets of 6- to 8-week-old male CB17 SCID mice (Charles River Laboratories) in a laminar flow sterile hood. Sub-cutaneous pocket was carefully closed by applying 1 or 2 wound clips. All mice were monitored for 24 hours after implantation procedure for any apparent physiologic disturbances or missing wound clips. Olaparib (40 mg/Kg body weight) treatment was started after 72 hours. […] Body weight was also monitored weekly during the course of the study.

[7] = Body weight of xenografted mice; type: in vivo; details: xenograft and primagraft models, Olaparib treatment
Method: as §3, §4

[8] = system: PC3 cells expressing BRCA2 shRNA; assay: γ-H2A.X immunofluorescence, PC3 cells expressing BRCA2 shRNA; type: cell-based, human; details: BRCA2 depleted PC3 cells, Olaparib
Method: Cells were seeded at 25,000 cells/mL in 4-well chamber slide 24 hours prior to the addition of siRNA or drug as indicated. Merbarone (Sigma) was dissolved in DMSO and stored at 4° C. Cells were then washed once in PBS, fixed for 15 minutes in 100% methanol, washed in PBS, permeabilized for 5 minutes in PBS containing 0.2% Triton-X, washed twice in PBS, blocked for 30 minutes in PBS containing 0.5% donkey serum (Sigma, St. Louis, Mo.), held for 45 minutes in PBS containing 0.5% donkey serum and primary antibody: anti-γ-H2A.X mouse monoclonal (Millipore Cat #05-636), anti-γ-H2A.X rabbit polyclonal (Cell Signaling, Cat #9719, Danvers, Mass.), and anti-53BP1 rabbit polyclonal (Cell Signaling, Cat #4937, Danvers, Mass.) washed 3 times with PBS, held for 30 minutes in PBS containing 0.5% donkey serum and secondary antibody: Alexa Fluor 488-anti-Mouse (Invitrogen) or Alexa Fluor 594-anti-Rabbit (Invitrogen). Cells were then stained with DAPI for 5 minutes and slides were mounted 12 hours prior to analysis using Vectashield (Vector laboratories, Burlingame, Calif.). Images were taken using 100× oil lens on an Olympus Confocal microscope at the University of Michigan microscopy imaging lab.

[9] = system: VCaP and PC3 xenograft tumors; assay: Ki67 and CD31 immunohistochemistry on tissue microarray of VCaP and PC3 xenograft tumors; details: pairwise t-test

Structure (SMILES): O=C(c1cc(Cc2n[nH]c(=O)c3ccccc23)ccc1F)N1CCN(C(=O)C2CC2)CC1 [Olaparib, 4-[3-(4-Cyclopropanecarbonylpiperazine-1-carbonyl)-4-fluorobenzyl]-2H-phthalazin-1-one]
- ERG-driven cell invasion [1]: blocks ERG-mediated RWPE cell invasion; also recorded: significant reduction
- VCaP cell invasion (VCaP cells): significant reduction; also recorded: blocks VCaP cell invasion
- ETV1-mediated invasion [2]: does now effect invasion
- invasion of PC3 (ETS rearrangement negative control) (PC3): does now effect invasion
- invasion of RWPE SLC45A3-BRAF (negative control) [3]: does now effect invasion
- in vitro cell proliferation rate (panel of cell lines): did not have an effect
- formation of liver metastases (LNCaP [4]): blocked the formation of liver metastases
- tumor size (weight) on CAM (LNCaP [5]): significantly smaller
- xenograft growth (PC3-LACZ xenografts): did not significantly inhibit xenograft growth
- primagraft growth [6]: had no effect
- total body weight [7]: did not lead to a significant decrease in total body weight; also recorded: did not have an observable effect on total body weight; also recorded: does not reduce total mouse body weight
- γ-H2A.X staining [8]: similarly dramatic increase in γ-H2A.X staining
- average number of Ki67 positive cells [9]: Neither NU7026 nor Olaparib consistently led to a significant change; also recorded: no significant change
- microvessel density (CD31) [9]: Neither NU7026 nor Olaparib consistently led to a significant change; also recorded: no significant change
